IC50 data for 11 compounds are collected here from US20260355212A1 (priority 2022, published 2026).

As a reminder, the IC50 is the concentration at which inhibition is half-maximal.

In one experiment the target is MERS Mpro (Middle East respiratory syndrome-related coronavirus, UniProt K9N7C7). The experiment is described as follows: biochemical. Also on record: species or system MERS-CoV.
In the next experiment the target is HCoV-HKU1 Mpro (Human coronavirus HKU1, UniProt P0C6X2). As to the kind of experiment: HCoV-HKU1 Mpro enzymatic inhibition assay (fluorescence). Type of experiment: biochemical. On the procedure:
(§1) The hCoV Mpro are cloned, expressed in E. coli and purified by WuXi AppTec Co., Ltd. The substrate are synthesized by Genscript Biotech.
(§2) Compounds are 3 fold serially diluted for 10 doses and added to an assay plate (384w format) using ECHO, in duplicate wells. The test concentration of test compounds is defined by sponsor. […] For no inhibition control (ZPE, zero percent effect), DMSO is added.
(§3) 25 μL of Mpro proteins are added to the assay plates containing compounds, respectively, using Multidrop. The compounds and Mpro proteins are pre-incubated at room temperature for 30 min. Then 5 µL of Mpro substrates are added to the related assay plates, respectively. Each activity testing point has a relevant background control to normalize the fluorescence interference of compound.
(§4) After 60 min incubation at 30° C., the fluorescence signal (RFU) is detected using a microplate reader M2e (SpectraMax) at Ex/Em=340 nm/490 nm.
(§5) The inhibition activity is calculated using the formula below, IC50 values will be calculated using the Inhibition % data.
(§6) Inhibition %=[(CPD−BGCPD)−(ZPE−BGZPE)/(HPE−BGHPE)−(ZPE−BGZPE)]×[…] • CPD: Signal of test compounds wells, containing compound+enzyme+substrate. • ZPE: Average of signals of zero percent effective control wells, containing enzyme+substrate, no compound. • HPE: Average of signals of hundred percent effect control wells, containing GC376+enzyme+substrate. • BG: Compound background control wells, containing compound+substrate, no enzyme
(§7) IC50 values of compounds are calculated with the GraphPad Prism software using the nonlinear regression model of log(inhibitor) vs. response—Variable slope (four parameters).

In another experiment the target is HCoV-229E Mpro (Human coronavirus 229E, UniProt P0C6X1). The experiment is described as follows: HCoV-229E Mpro enzymatic inhibition assay (fluorescence). The experiment is classed as biochemical. On the procedure:
as §1, §2, §3, §4, §5, §6, §7

The target of a further experiment is HCoV-OC43 Mpro (Human coronavirus OC43, UniProt P0C6X6). As to the kind of experiment: HCoV-OC43 Mpro enzymatic inhibition assay (fluorescence). The experiment is classed as biochemical. On the procedure: as §1, §2, §3, §4, §5, §6, §7
The target of a further experiment is HCoV-NL63 Mpro (Human coronavirus NL63, UniProt P0C6X5). As to the kind of experiment: HCoV-NL63 Mpro enzymatic inhibition assay (fluorescence). Type of experiment: biochemical. The procedure: as §1, §2, §3, §4, §5, §6, §7
A further experiment has as its target SARS-CoV-1 Mpro (Severe acute respiratory syndrome coronavirus, UniProt P0C6X7). The experiment is described as follows: biochemical.
Another experiment concerns the target SARS-CoV-2 Mpro (Severe acute respiratory syndrome coronavirus 2, UniProt P0DTD1). As to the kind of experiment: SARS-CoV-2 Mpro enzymatic inhibition assay (fluorescence). Type of experiment: biochemical. The procedure:
as §1
Compounds are 3 fold serially diluted for 10 doses and added to an assay plate (384w format) using ECHO, in duplicate wells. The test concentration of test compounds is defined by sponsor.
25 μL of Mpro proteins are added to the assay plates containing compounds, respectively, using Multidrop. The compounds and Mpro proteins are pre-incubated at room temperature for 30 min. Then 5 µL of Mpro substrates are added to the related assay plates, respectively.
as §4, §5, §7

Where two headings read alike, the source gives them in different places.

Chain of HCoV-HKU1 Mpro (P0C6X2 3335-3637 limits assumed): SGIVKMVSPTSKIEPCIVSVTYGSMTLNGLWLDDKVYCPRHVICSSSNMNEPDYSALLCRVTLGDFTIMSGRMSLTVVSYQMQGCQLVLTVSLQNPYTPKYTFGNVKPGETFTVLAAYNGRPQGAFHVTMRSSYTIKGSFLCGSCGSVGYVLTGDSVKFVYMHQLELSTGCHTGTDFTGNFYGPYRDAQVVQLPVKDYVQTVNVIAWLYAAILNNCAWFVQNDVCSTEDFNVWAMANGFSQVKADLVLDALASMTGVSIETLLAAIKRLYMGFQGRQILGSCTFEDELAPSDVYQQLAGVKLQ
Chain of HCoV-229E Mpro (P0C6X1 2966-3267 limits assumed): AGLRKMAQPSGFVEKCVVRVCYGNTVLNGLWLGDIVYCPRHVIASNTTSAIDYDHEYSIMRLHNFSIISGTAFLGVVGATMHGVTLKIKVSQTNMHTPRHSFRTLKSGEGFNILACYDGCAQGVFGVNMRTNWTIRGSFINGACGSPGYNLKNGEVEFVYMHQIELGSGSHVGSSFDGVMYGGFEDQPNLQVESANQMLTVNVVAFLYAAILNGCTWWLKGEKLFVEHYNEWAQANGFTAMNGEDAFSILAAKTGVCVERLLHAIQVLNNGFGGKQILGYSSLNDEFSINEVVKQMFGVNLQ
Chain of HCoV-NL63 Mpro (P0C6X5 2940-3242 limits assumed): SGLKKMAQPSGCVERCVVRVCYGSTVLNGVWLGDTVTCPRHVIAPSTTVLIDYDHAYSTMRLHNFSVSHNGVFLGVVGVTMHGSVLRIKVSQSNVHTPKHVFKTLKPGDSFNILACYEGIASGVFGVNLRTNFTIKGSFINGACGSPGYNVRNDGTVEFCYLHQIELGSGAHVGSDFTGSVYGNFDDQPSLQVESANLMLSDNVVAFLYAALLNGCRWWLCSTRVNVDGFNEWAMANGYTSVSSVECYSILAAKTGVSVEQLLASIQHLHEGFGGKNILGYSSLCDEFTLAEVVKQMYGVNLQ
Chain of MERS Mpro (K9N7C7 3248-3553 limits assumed): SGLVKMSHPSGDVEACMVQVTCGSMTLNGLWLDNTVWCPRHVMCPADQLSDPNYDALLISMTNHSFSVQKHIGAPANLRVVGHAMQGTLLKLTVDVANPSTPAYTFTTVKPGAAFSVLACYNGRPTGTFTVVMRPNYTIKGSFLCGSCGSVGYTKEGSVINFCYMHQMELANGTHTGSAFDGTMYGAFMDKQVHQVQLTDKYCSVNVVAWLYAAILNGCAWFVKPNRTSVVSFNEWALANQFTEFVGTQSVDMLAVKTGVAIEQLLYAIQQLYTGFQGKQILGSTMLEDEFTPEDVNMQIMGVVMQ
Chain of HCoV-OC43 Mpro (P0C6X6 3247-3549 limits assumed): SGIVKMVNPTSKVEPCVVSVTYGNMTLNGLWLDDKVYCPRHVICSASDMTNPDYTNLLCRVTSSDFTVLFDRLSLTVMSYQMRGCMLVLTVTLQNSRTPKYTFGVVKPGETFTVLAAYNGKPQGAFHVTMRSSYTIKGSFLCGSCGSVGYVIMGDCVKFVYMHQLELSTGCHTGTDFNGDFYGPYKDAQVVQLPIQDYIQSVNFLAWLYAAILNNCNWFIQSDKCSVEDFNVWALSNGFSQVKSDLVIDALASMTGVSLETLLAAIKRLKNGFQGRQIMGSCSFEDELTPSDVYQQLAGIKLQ

As for `CC1(C)[C@@H]2[C@@H](C(=O)N[C@H](C=O)C[C@@H]3CCNC3=O)N(C(=O)C3(c4ccccc4)CC3)C[C@@H]21` [Compound 1, (1R,2S,5S)-6,6-dimethyl-N—((S)-1-oxo-3-((S)-2-oxopyrrolidin-3-yl)propan-2-yl)-3-(1-phenylcyclopropanecarbonyl)-3-azabicyclo[3.1.0]hexane-2-carboxamide], the IC50 against MERS Mpro worked out at 129 nM; on HCoV-HKU1 Mpro, 11.4 nM; on HCoV-229E Mpro, 32.4 nM; against HCoV-OC43 Mpro it was 28.4 nM; against HCoV-NL63 Mpro, 73.7 nM; at SARS-CoV-1 Mpro it was 17.3 nM. This compound gave an IC50 against SARS-CoV-2 Mpro of 9.53 nM.

In the case of `O=C[C@H](C[C@@H]1CCNC1=O)NC(=O)[C@@H]1CC2(CC2)CN1C(=O)c1cc2cccc(Cl)c2[nH]1` [Compound 2, (S)-5-(7-chloro-1H-indole-2-carbonyl)-N—((S)-1-oxo-3-((S)-2-oxopyrrolidin-3-yl)propan-2-yl)-5-azaspiro[2.4]heptane-6-carboxamide], the IC50 is 199 nM against MERS Mpro; 10.4 nM at HCoV-HKU1 Mpro; 32.6 nM at HCoV-229E Mpro; 38.2 nM on HCoV-OC43 Mpro; 48.4 nM against HCoV-NL63 Mpro; 42.5 nM against SARS-CoV-1 Mpro. Besides, at SARS-CoV-2 Mpro, half-maximal inhibition (IC50) required 9.84 nM.

In the case of `O=C[C@H](C[C@@H]1CCNC1=O)NC(=O)[C@@H]1CC2(CC2)CN1C(=O)c1cc2c(F)cccc2[nH]1` [Compound 3, (S)-5-(4-fluoro-1H-indole-2-carbonyl)-N—((S)-1-oxo-3-((S)-2-oxopyrrolidin-3-yl)propan-2-yl)-5-azaspiro[2.4]heptane-6-carboxamide], the IC50 against MERS Mpro was determined as 110 nM; on HCoV-HKU1 Mpro, 9.95 nM; against HCoV-229E Mpro, 27.4 nM; against HCoV-OC43 Mpro, 25 nM; on HCoV-NL63 Mpro, 17.8 nM; against SARS-CoV-1 Mpro it was 19.3 nM. The same compound had an IC50 at SARS-CoV-2 Mpro of 10.1 nM.

On to `CC1(C)[C@@H]2[C@@H](C(=O)N[C@H](C=O)C[C@@H]3CCNC3=O)N(C(=O)c3cc4ccc(F)c(F)c4[nH]3)C[C@@H]21` [Compound 4, (1R,2S,5S)-3-(6,7-difluoro-1H-indole-2-carbonyl)-6,6-dimethyl-N—((S)-1-oxo-3-((S)-2-oxopyrrolidin-3-yl)propan-2-yl)-3-azabicyclo[3.1.0]hexane-2-carboxamide], for which the IC50 at MERS Mpro amounted to 198 nM; on HCoV-HKU1 Mpro, 26.8 nM; at HCoV-229E Mpro, 28.5 nM; against HCoV-OC43 Mpro it was 40.8 nM; against HCoV-NL63 Mpro it was 34.4 nM; on SARS-CoV-1 Mpro, 23.6 nM. The IC50 against SARS-CoV-2 Mpro came out at 10.2 nM.

Consider `CC1(C)[C@@H]2[C@@H](C(=O)N[C@H](C=O)C[C@@H]3CCNC3=O)N(C(=O)c3cc4cccc(Cl)c4[nH]3)C[C@@H]21` [Compound 5, (1R,2S,5S)-3-(7-chloro-1H-indole-2-carbonyl)-6,6-dimethyl-N—((S)-1-oxo-3-((S)-2-oxopyrrolidin-3-yl)propan-2-yl)-3-azabicyclo[3.1.0]hexane-2-carboxamide], for which the IC50 was 147 nM against MERS Mpro; 22 nM against HCoV-HKU1 Mpro; 33.9 nM at HCoV-229E Mpro; 42.1 nM against HCoV-OC43 Mpro; 53.5 nM against HCoV-NL63 Mpro; 22.5 nM on SARS-CoV-1 Mpro. Also, it took 10.5 nM to reach half-maximal inhibition on SARS-CoV-2 Mpro (IC50).

As to `CC1(C)[C@@H]2[C@@H](C(=O)N[C@H](C=O)C[C@@H]3CCNC3=O)N(C(=O)c3cc4cccc(F)c4[nH]3)C[C@@H]21` [Compound 6, (1R,2S,5S)-3-(7-fluoro-1H-indole-2-carbonyl)-6,6-dimethyl-N—((S)-1-oxo-3-((S)-2-oxopyrrolidin-3-yl)propan-2-yl)-3-azabicyclo[3.1.0]hexane-2-carboxamide], the IC50 at MERS Mpro was 168 nM; against HCoV-HKU1 Mpro, 25.1 nM; against HCoV-229E Mpro it was 31.1 nM; at HCoV-OC43 Mpro, 38.8 nM; against HCoV-NL63 Mpro, 38.3 nM; against SARS-CoV-1 Mpro, 19.5 nM. Besides, at SARS-CoV-2 Mpro, the IC50 was found to be 10.8 nM.

As to `Cc1cccc([C@@H](C)C(=O)N2C[C@H]3[C@@H]([C@H]2C(=O)N[C@H](C=O)C[C@@H]2CCNC2=O)C3(C)C)c1` [Compound 7, (1R,2S,5S)-6,6-dimethyl-N—((S)-1-oxo-3-((S)-2-oxopyrrolidin-3-yl)propan-2-yl)-3-((R)-2-(m-tolyl)propanoyl)-3-azabicyclo[3.1.0]hexane-2-carboxamide], the IC50 is 81 nM at MERS Mpro; 9.2 nM at HCoV-HKU1 Mpro; 22 nM at HCoV-229E Mpro; 26.6 nM against HCoV-OC43 Mpro; 33.6 nM against HCoV-NL63 Mpro; 12.9 nM against SARS-CoV-1 Mpro. For the same compound, at SARS-CoV-2 Mpro (mean, 25 nM protein, 25 μM substrate, 30 min pre-incubation, 60 min at 30° C., read-out: Mpro_SARS-CoV-2 mean IC50), the IC50 was determined as 11 nM.

As to `CC(C)(C)[C@H](NC(=O)C(F)(F)F)C(=O)N1C[C@H]2[C@@H]([C@H]1C(=O)N[C@H](C=O)C[C@@H]1CCNC1=O)C2(C)C` [Compound 12, (1R,2S,5S)-3-((S)-3,3-dimethyl-2-(2,2,2-trifluoroacetamido)butanoyl)-6,6-dimethyl-N—((S)-1-oxo-3-((S)-2-oxopyrrolidin-3-yl)propan-2-yl)-3-azabicyclo[3.1.0]hexane-2-carboxamide], the IC50 was 175 nM against MERS Mpro; 15 nM at HCoV-HKU1 Mpro; 33.8 nM at HCoV-229E Mpro; 37 nM on HCoV-OC43 Mpro; 53.9 nM against HCoV-NL63 Mpro; 21.2 nM at SARS-CoV-1 Mpro.

`CC(C)(C)NC(=O)N[C@H](C(=O)N1C[C@H]2[C@@H]([C@H]1C(=O)N[C@@H](C[C@@H]1CCNC1=O)C(=O)C(N)=O)C2(C)C)C(C)(C)C` [Compound 50, (1R, 2S, 5S)—N—((S)-4-amino-3,4-dioxo-1-((S)-2-oxopyrrolidin-3-yl)butan-2-yl)-3-((S)-2-(3-(tert-butyl)ureido)-3,3-dimethylbutanoyl)-6,6-dimethyl-3-azabicyclo[3.1.0]hexane-2-carboxamide]: the IC50 against MERS Mpro worked out at 621 nM; on HCoV-HKU1 Mpro, 34.2 nM; against HCoV-229E Mpro, 130 nM; on HCoV-OC43 Mpro, 171 nM; at HCoV-NL63 Mpro it was 256 nM; against SARS-CoV-1 Mpro, 46.9 nM.

For `CC1(C)[C@@H]2[C@@H](C(=O)N[C@H](C=O)C[C@@H]3CCNC3=O)N(C(=O)CC3CCCCC3)C[C@@H]21` [Compound 54, (1R,2S,5S)-3-(2-Cyclohexylacetyl)-6,6-dimethyl-N—((S)-1-oxo-3-((S)-2-oxopyrrolidin-3-yl)propan-2-yl)-3-azabicyclo[3.1.0]hexane-2-carboxamide], the IC50 came out at 285 nM at MERS Mpro (read-out: Mpro_MERS mean IC50, mean, 100 nM protein, 25 μM substrate, 30 min pre-incubation, 60 min at 30° C.); 18.8 nM at HCoV-HKU1 Mpro (read-out: Mpro_HKU1 mean IC50, mean, 12.5 nM protein, 12.5 μM substrate, 30 min pre-incubation, 60 min at 30° C.); 36.4 nM on HCoV-229E Mpro (read-out: Mpro_229E mean IC50, mean, 50 nM protein, 12.5 μM substrate, 30 min pre-incubation, 60 min at 30° C.); 56.7 nM on HCoV-OC43 Mpro (read-out: Mpro_OC43 mean IC50, mean, 25 nM protein, 12.5 μM substrate, 30 min pre-incubation, 60 min at 30° C.); 42.6 nM at HCoV-NL63 Mpro (read-out: Mpro_NL63 mean IC50, mean, 50 nM protein, 12.5 μM substrate, 30 min pre-incubation, 60 min at 30° C.); 37.8 nM at SARS-CoV-1 Mpro (read-out: Mpro_SARS-CoV-1 mean IC50, mean, 25 nM protein (SARS_Mpro), 25 μM substrate, 30 min pre-incubation, 60 min at 30° C.).

As for `O=C[C@H](C[C@@H]1CCNC1=O)NC(=O)[C@@H]1[C@H]2CCC[C@H]2CN1C(=O)COc1ccc(Cl)cc1Cl` [Compound 63, (1S,3aR,6aS)-2-(2-(2,4-Dichlorophenoxy)acetyl)-N—((S)-1-oxo-3-((S)-2-oxopyrrolidin-3-yl)propan-2-yl)octahydrocyclopenta[c]pyrrole-1-carboxamide], the IC50 against MERS Mpro came to 382 nM; against HCoV-HKU1 Mpro, 39.7 nM; at HCoV-229E Mpro, 53.8 nM; on HCoV-OC43 Mpro, 66.8 nM; against HCoV-NL63 Mpro, 105 nM; on SARS-CoV-1 Mpro, 32.1 nM.
